Test results: patent US9765049B2, “N-cycloalkyl-N-[(fusedphenyl)methylene]-(thio)carboxamide derivatives” (BAYER CROPSCIENCE AG, priority 2013, dated 2017)
Read-outs that look alike come from different tables or passages of the source.

Assays:
[1] = system: Pyrenophora teres; test: In vivo preventive test on Pyrenophora teres (net blotch on barley); conditions: 500 ppm, barley plants, preventive spray, evaluated 14 days after inoculation
Protocol: (§1) Example D: In Vivo Preventive Test on Pyrenophora teres (Net Blotch on Barley) [table] The active ingredients are made soluble and homogenized in a mixture of Dimethyl sulfoxide/Acetone/Tween®80 and then diluted in water to the desired concentration. The young plants of barley are treated by spraying the active ingredient prepared as described above. Control plants are treated only with an aqueous solution of Acetone/Dimethyl sulfoxide/Tween® 80. After 24 hours, the plants are contaminated by spraying the leaves with an aqueous suspension of Pyrenophora teres spores.

[2] = system: Alternaria brassicae; test: In vivo preventive test on Alternaria brassicae (leaf spot on radish); conditions: 500 ppm, radish plants, preventive spray, evaluated 6 days after inoculation
Protocol: as §1, with “A:” for “D:”, “Alternaria brassicae (Leaf Spot” for “Pyrenophora teres (Net Blotch”, “Radish)” for “Barley)”, “radish” for “barley”, “Alternaria brassicae” for “Pyrenophora teres”, “spores. The contaminated radish plants are incubated for 6 days at 20° C. and at 100% relative humidity.” for “spores.”

[3] = system: Sphaerotheca fuliginea; test: In vivo preventive test on Sphaerotheca fuliginea (powdery mildew on cucurbits); conditions: 500 ppm, gherkin plants, preventive spray, evaluated 15 days after inoculation
Protocol: as §1, with “F:” for “D:”, “Sphaerotheca fuliginea (Powdery Mildew” for “Pyrenophora teres (Net Blotch”, “Cucurbits)” for “Barley)”, “gherkin” for “barley”, “Sphaerotheca fuliginea” for “Pyrenophora teres”

[4] = system: Septoria tritici; test: In vivo preventive test on Septoria tritici (wheat); conditions: 500 ppm, wheat plants, preventive spray, evaluated 24 days after inoculation
Protocol: as §1, with “E:” for “D:”, “Septoria tritici (Wheat)” for “Pyrenophora teres (Net Blotch on Barley)”, “wheat” for “barley”, “Septoria tritici” for “Pyrenophora teres”, “spores. The contaminated wheat plants are incubated for 72 hours at 18° C. and at 100% relative humidity and then for 21 days at 20° C. and at 90% relative humidity.” for “spores.”

[5] = log P by HPLC on reversed-phase column (C 18), EEC Directive 79/831 Annex V.A8; assay type: physicochemical; conditions: for logP: Table 1, HPLC, 40° C., 0.1% aqueous formic acid and acetonitrile
Protocol: In table 1, the log P values were determined in accordance with EEC Directive 79/831 Annex V.A8 by HPLC (High Performance Liquid Chromatography) on a reversed-phase column (C 18), using the method described below: Temperature: 40° C.; Mobile phases: 0.1% aqueous formic acid and acetonitrile; linear gradient from 10% acetonitrile to 90% acetonitrile. Calibration was carried out using unbranched alkan-2-ones (comprising 3 to 16 carbon atoms) with known log P values (determination of the log P values by the retention times using linear interpolation between two successive alkanones). lambda-max-values were determined using UV-spectra from 200 nm to 400 nm and the peak values of the chromatographic signals.

[6] = system: Botrytis cinerea; test: In vivo preventive test Botrytis cinerea (grey mould); conditions: gherkin plants
Protocol: as §1, with “B:” for “D:”, “Botrytis cinerea (Grey Mould)” for “on Pyrenophora teres (Net Blotch on Barley)”, “gherkin” for “barley”, “Botrytis cinerea” for “Pyrenophora teres”, “spores. The contaminated gherkin plants are incubated for 4 to 5 days at 17° C. and at 90% relative humidity.” for “spores.”

[7] = system: Pyricularia oryzae; assay type: in vivo; conditions: dose 500 ppm, rice plants, preventive spray, evaluated 6 days after inoculation
[8] = system: Fusarium nivale (var. majus); test: Efficacy against Fusarium nivale (var. majus) (wheat), curative test; assay type: in vivo; conditions: for Efficacy: evaluated 5 days after inoculation
Protocol: Example I: Efficacy Against Fusarium nivale (Var. Majus) (Wheat) [table] To produce a suitable preparation of active compound, 1 part by weight of active compound or active compound combination is mixed with the stated amounts of solvent and emulsifier, and the concentrate is diluted with water to the desired concentration. […] After the spray coating has dried on, the plants remain in a greenhouse under translucent incubation cloches at a temperature of approximately 10° C. and a relative atmospheric humidity of approximately 100%.

[9] = system: Uromyces appendiculatus; test: In vivo preventive test on Uromyces appendiculatus (bean rust); conditions: bean plants
Protocol: as §1, with “G:” for “D:”, “Uromyces appendiculatus (Bean Rust)” for “Pyrenophora teres (Net Blotch on Barley)”, “bean” for “barley”, “Uromyces appendiculatus” for “Pyrenophora teres”

[10] = system: Puccinia recondita; test: In vivo preventive test on Puccinia recondita (brown rust on wheat); conditions: 500 ppm, wheat plants, preventive spray, evaluated 11 days after inoculation
Protocol: as §1, with “C:” for “D:”, “Puccinia recondita (Brown Rust” for “Pyrenophora teres (Net Blotch”, “Wheat)” for “Barley)”, “wheat” for “barley”, “Puccinia recondita” for “Pyrenophora teres”

[11] = Table B, 500 ppm, preventive spray, evaluated 4 to 5 days after inoculation
[12] = Table G, 500 ppm, preventive spray, evaluated 11 days after inoculation

| Structure (SMILES) | Efficacy [1] [%] | Efficacy [2] [%] | Efficacy [3] [%] | Efficacy [4] [%] | logP [5] | Efficacy [6, 11] [%] | Efficacy [7] [%] | Efficacy ([7]; listed as 1.01) | Efficacy ([8]; dose 250 ppm) [%] | Efficacy ([8]; dose 500 ppm) [%] | protection ([8]; dose of 250 ppm and 500 ppm) | Efficacy ([9]; Table G2, dose 100 ppm) [%] | Efficacy ([9]; Table G2, dose 100 ppm, listed as 1.01) | Efficacy ([6]; Table B2, dose 100 ppm) [%] | Efficacy ([6]; Table B2, dose 500 ppm) | protection ([6]; dose of 100 ppm and 500 ppm) | Efficacy [10] [%] | chromatographic logP [5] | Efficacy [9, 12] [%] |
| --- | --- | --- | --- | --- | --- | --- | --- | --- | --- | --- | --- | --- | --- | --- | --- | --- | --- | --- | --- |
| Cn1cc(C(=O)N(Cc2cccc3c2C2CCC3C2=C(Cl)Cl)C2CC2)c(C(F)F)n1 (stereo not drawn) [I.07] | 97 | 97 | 98 | 97 | 4.13 |  |  |  |  |  |  |  |  |  |  |  |  |  |  |
| Cn1nc(C(F)F)c(C(=O)N(Cc2cccc3c2C2C=CC3C2)C2CC2)c1F (stereo not drawn) [I.04] | 100 | 83 | 100 | 98 | 3.55 | 97 |  |  |  |  |  |  |  |  |  |  |  |  |  |
| Cn1nc(C(F)F)c(C(=O)N(Cc2cccc3c2C2CCC3C2)C2CC2)c1F (stereo not drawn) [I.01] | 100 | 81 | 100 | 100 | 3.87 | 100 | 75 | at least 70% | 100 | 100 | total protection | 99 | at least 95% | 98 | 100/100 | at least 98% | 98 |  |  |
| Cn1nc(C(F)F)c(C(=O)N(Cc2cccc3c2C2CCC3C2=C(Cl)Cl)C2CC2)c1F (stereo not drawn) [I.08, N-cyclopropyl-N-([9-(dichloromethylene)-1,2,3,4-tetrahydro-1,4-methanonaphthalen-5-yl]methyl)-3-(difluoromethyl)-5-fluoro-1-methyl-1H-pyrazole-4-carboxamide] | 97 | 100 | 100 | 100 |  | 100 |  |  |  |  |  |  |  |  |  |  | 83 | 4.51 |  |
| Cn1nc(C(F)F)c(C(=S)N(Cc2cccc3c2C2CCC3C2=C(Cl)Cl)C2CC2)c1F (stereo not drawn) [I.11] |  |  | 100 | 100 | 5.23 | 100 |  |  |  |  |  |  |  |  |  |  | 88 |  | 84 |
| Cn1nc(C(F)F)c(C(=S)N(Cc2cccc3c2C2CCC3C2)C2CC2)c1F (stereo not drawn) [I.02] |  | 79 | 100 | 100 | 4.64 | 97 |  |  |  |  |  |  |  |  |  |  | 97 |  | 100 |
